Where two headings read alike, the source gives them in different places.
How the values were obtained:
[1] = Plasma pharmacokinetics of betahistine and 2-PAA after oral dosing in UVN cats (LC-MS/MS, non-compartmental analysis); format: in vivo, cat; conditions: for AUC / Cmax / Tmax / half-life: male, plasma, po; for half-life: read-out: Betahistine t1/2 (converted)
Procedure: The experiments were performed on nine adult male UVN cats randomly allocated into three groups of cats. Three groups of three adult male cats received 0.2 mg/kg betahistine (N = 3: cats 1–3), 2 mg/kg betahistine (N = 3: cats 4–6), or 0.2 mg/kg betahistine plus 1 mg/kg selegiline (N = 3: cats 7–9). […] The samples were frozen at −80°C until analysis. Pharmacokinetic parameters of betahistine and its major metabolite 2-PAA were calculated by applying non-compartmental analysis.
Betahistine and its internal standard, betahistine-d3, were extracted by liquid/liquid extraction from plasma under alkaline conditions toward 1-butanol/isooctane, followed by a second liquid/liquid extraction step of acidic 1-butanol/isooctane toward water. Betahistine concentration in plasma was analyzed using a validated LC-MS/MS method. In brief, an API 4000 (Applied Biosystems) mass spectrometer coupled with a Symbiosis HPLC system (Sparks, Emmen, The Netherlands) was employed to analyze betahistine. Extracts (100 μl) were injected into a XTerra RP18 150 ^* 4.6 mm, 3.5 μm column (Waters, Etten-Leur, The Netherlands) and separated at 30°C under isocratic conditions using an aqueous metanol solution containing 0.5 mM ammonium formate as mobile phase. Betahistine was quantified by a tandem mass spectrometer in positive MRM. Parent daughter transition was followed for betahistine (m/z 137 > 94). Betahistine-d3 dihydrochloride was used as internal standard. Pharmacokinetic parameters of betahistine were calculated by applying non-compartmental analysis using the validated PK software WinNonLin, version 5.23 (Pharsight Corporation, Mountain View, CA, USA).
Cmax and tmax were derived directly from the plasma concentration-time curves. Linear trapezoidal rule was used to calculate AUC0-t during the part of the curve with increasing plasma concentrations. For the descending part of the curve, the log-linear trapezoidal rule was used. Calculation of the elimination half-life (t1/2) was evaluated as ln 2/kel, with kel as the slope of the terminal phase of the plasma concentration-time curve.

monoamine oxidase a/b = conditions: background statement, no reference given; cited from earlier work
[2] = cats, abstract statement, up to
[3] = 0.2 mg/kg, UVN cats, oral betahistine 0.2 mg/kg alone, day 1
[4] = 2 mg/kg, UVN cats, oral betahistine 2 mg/kg alone, day 1
[5] = 2 mg/kg, UVN cats, oral betahistine 2 mg/kg alone, day 21
[6] = UVN cats, oral betahistine 0.2 mg/kg plus selegiline 1 mg/kg, day 1
[7] = UVN cats, oral betahistine 0.2 mg/kg plus selegiline 1 mg/kg, day 21

CNCCc1ccccn1 [Betahistine, betahistine]
Cmax- and AUC-values in cats compared to human ([1]; cats higher than human): 40–50 times
Increase of betahistine AUC by co administration of selegiline [1, 2]: ≤ 180 fold
Increase of betahistine Cmax by co administration of selegiline [1, 2]: up to 146 fold
AUC ([1]; 0.2 mg/kg, PK/PD table, DAY 2, BH 0.2 mg/kg, read-out: AUC (betahistine)): 3.65 ng·h/mL
Cmax ([1]; 0.2 mg/kg, PK/PD table, DAY 2, BH 0.2 mg/kg, read-out: Cmax (betahistine)): 4.11 ng/mL
Tmax [1, 3]: 0.25 h
AUC ([1]; 0.2 mg/kg, UVN cats, oral betahistine 0.2 mg/kg alone, day 1, read-out: Betahistine AUC): 3.7 ± 2.1 ng·h/mL
Cmax ([1]; 0.2 mg/kg, UVN cats, oral betahistine 0.2 mg/kg alone, day 1, read-out: Betahistine Cmax): 4.1 ± 2.9 ng/mL
half-life [1, 3]: 1.9 ± 0.7 h
Tmax ([1]; 0.2 mg/kg, UVN cats, oral betahistine 0.2 mg/kg alone, day 21): 2 h
half-life ([1]; 0.2 mg/kg, UVN cats, oral betahistine 0.2 mg/kg alone, day 21, n = 2): 4 h
AUC ([1]; 0.2 mg/kg, UVN cats, oral betahistine 0.2 mg/kg alone, day 21, read-out: Betahistine AUC): 1.5 ± 0.6 ng·h/mL
Cmax ([1]; 0.2 mg/kg, UVN cats, oral betahistine 0.2 mg/kg alone, day 21, read-out: Betahistine Cmax): 0.6 ± 0.4 ng/mL
AUC ([1]; 2 mg/kg, PK/PD table, DAY 2, BH 2.0 mg/kg, read-out: AUC (betahistine)): 26.7 ng·h/mL
Cmax ([1]; 2 mg/kg, PK/PD table, DAY 2, BH 2.0 mg/kg, read-out: Cmax (betahistine)): 54 ng/mL
Tmax [1, 4]: 0.25 h
AUC ([1]; 2 mg/kg, UVN cats, oral betahistine 2 mg/kg alone, day 1, read-out: Betahistine AUC): 19.7 ± 5 ng·h/mL
Cmax ([1]; 2 mg/kg, UVN cats, oral betahistine 2 mg/kg alone, day 1, read-out: Betahistine Cmax): 23.8 ± 11.2 ng/mL
half-life [1, 4]: 3 ± 2.6 h
Tmax [1, 5]: 0.5 h
AUC ([1]; 2 mg/kg, UVN cats, oral betahistine 2 mg/kg alone, day 21, read-out: Betahistine AUC): 51 ± 42.4 ng·h/mL
Cmax ([1]; 2 mg/kg, UVN cats, oral betahistine 2 mg/kg alone, day 21, read-out: Betahistine Cmax): 38.9 ± 34.9 ng/mL
half-life [1, 5]: 1.6 ± 0.3 h
AUC ([1]; PK/PD table, DAY 2, BH 0.2 mg/kg + Selegiline 1 mg/kg, read-out: AUC (betahistine)): 19.7 ng·h/mL
Cmax ([1]; PK/PD table, DAY 2, BH 0.2 mg/kg + Selegiline 1 mg/kg, read-out: Cmax (betahistine)): 23.8 ng/mL
Tmax [1, 6]: 0.25 h
AUC ([1]; UVN cats, oral betahistine 0.2 mg/kg plus selegiline 1 mg/kg, day 1, read-out: Betahistine AUC): 26.7 ± 24.1 ng·h/mL
half-life [1, 6]: 2.5 ± 0.5 h
Tmax [1, 7]: 1 h
AUC ([1]; UVN cats, oral betahistine 0.2 mg/kg plus selegiline 1 mg/kg, day 21, read-out: Betahistine AUC): 6.7 ± 5.1 ng·h/mL
Cmax ([1]; UVN cats, oral betahistine 0.2 mg/kg plus selegiline 1 mg/kg, day 21, read-out: Betahistine Cmax): 13.2 ± 13 ng/mL
half-life [1, 7]: 1.9 ± 0.4 h
Betahistine Cmax with versus without selegiline co-administration ([1]; repeated administration, day 21): 65 fold
Increase of betahistine AUC0−7h by selegiline 1 mg/kg ([1]; single administration, day 1): ~ 5 fold
Increase of betahistine Cmax by selegiline 1 mg/kg ([1]; single administration, day 1): ~ 5 fold
Share of the drug fastly metabolized by the monoamine oxidase a/b (monoamine oxidase a/b): 95%
